Results taken from patent publication US11479546B2, “Antimalarial hexahydropyrimidine analogues” (UCB Biopharma SRL, priority 2018, dated 2022).

Test system: Plasmodium falciparum 3D7
Assay: P. falciparum 3D7 asexual blood stage assay, Assay Procedure Version 2 (SYBR green readout)
Assay type: cell-based
Settings: Version 2 of the assay procedure (asterisk *), 72 h incubation in infected erythrocytes, 50,000 nM to 15 nM
Method in brief: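 Parasite growth read as DNA fluorescence (SYBR green lysis overnight, ex 485/em 528 nm) after 72 h drug exposure of 3D7-infected erythrocytes at 0.5% parasitaemia, 5% haematocrit, 37 °C under 1% O2/3% CO2. Compounds tested 15–50,000 nM final, 0.5% DMSO; normalised to mefloquine (100%) and DMSO (0%), biphasic two-site EC50 fitting.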

[1] = Plasmodium falciparum, 3D7, Erythrocyte, 72 h

| Structure (SMILES) | IC50 [1] | IC50 |
| --- | --- | --- |
| C[C@@H]1C[C@H](N2C(=N)N[C@](C)(c3cccc(Nc4ccc(C5CC5)nc4)c3Cl)CC2=O)CCO1 (relative stereo) [Example 198, (6S)-6-{2-Chloro-3-[(6-cyclo-propylpyridin-3-yl)amino]-phenyl}-2-imino-6-methyl-3-[(2R*,4R*)-2-methyltetrahydro-pyran-4-yl]hexahydropyrimidin-4-one] | 22 nM | – |
| CC(C)(C)c1ncc(Nc2cccc([C@]3(C)CC(=O)N(C4CCOCC4)C(=N)N3)c2Cl)cn1 [Example 62, (6S)-6-{3-[(2-tert-Butyl-pyrimidin-5-yl)amino]-2-chloro-phenyl}-2-imino-6-methyl-3-(tetrahydropyran-4-yl)-hexahydropyrimidin-4-one] | 226 nM | – |
| Cc1ccc(Nc2cccc([C@]3(C)CC(=O)N(C4CCOC(C)(C)C4)C(=N)N3)c2Cl)cn1 (single isomer, unassigned) [Example 146, (6S)-6-{2-Chloro-3-[(6-methyl-pyridin-3-yl)amino]phenyl}-3-[(4S*)-2,2-dimethyltetrahydro-pyran-4-yl]-2-imino-6-methyl-hexahydropyrimidin-4-one] | – | 425 nM |
| C[C@@]1(c2cccc(Nc3ccccc3OC(F)F)c2Cl)CC(=O)N(C2CCOCC2)C(=N)N1 [Example 66, (6S)-6-{2-Chloro-3-[2-(difluoro-methoxy)anilino]phenyl}-2-imino-6-methyl-3-(tetrahydro-pyran-4-yl)hexahydropyrimidin-4-one] | 217 nM | – |
| C[C@@]1(c2cccc(Nc3ccc(F)cc3)c2Cl)CC(=O)N(C2CC(O)(C(F)(F)F)C2)C(=N)N1 [Example 179, (6S)-6-[2-Chloro-3-(4-fluoro-anilino)phenyl]-3-[3-hydroxy-3-(trifluoromethyl)cyclobutyl]-2-imino-6-methyl-hexahydro-pyrimidin-4-one (cis isomer)] | 381 nM | – |
| CCc1ccc(Nc2cccc([C@]3(C)CC(=O)N(C4CCOCC4)C(=N)N3)c2Cl)cn1 [Example 111, (6S)-6-{2-Chloro-3-[(6-ethyl-pyridin-3-yl)amino]phenyl}-2-imino-6-methyl-3-(tetrahydro-pyran-4-yl)hexahydropyrimidin-4-one] | 248 nM | – |
| C[C@@]1(c2cccc(Nc3ccc(OC(F)(F)F)cc3)c2Cl)CC(=O)N(C2CCOCC2)C(=N)N1 [Example 64, (6S)-6-{2-Chloro-3-[4-(trifluoromethoxy)anilino]-phenyl}-2-imino-6-methyl-3-(tetrahydropyran-4-yl)-hexahydropyrimidin-4-one] | 1760 nM | – |
| C[C@@]1(c2cccc(Nc3ccc(C#N)cn3)c2Cl)CC(=O)N(C2CCOCC2)C(=N)N1 [Example 183, 6-{2-Chloro-3-[(4S)-2-imino-4-methyl-6-oxo-1-(tetrahydro-pyran-4-yl)hexahydropyrimidin-4-yl]anilino}pyridine-3-carbo-nitrile] | 582 nM | – |
| C[C@@]1(c2cccc(Nc3ncc4ccccn34)c2Cl)CC(=O)N(C2CCOCC2)C(=N)N1 [Example 187, (6S)-6-[2-Chloro-3-(imidazo-[1,5-a]pyridin-3-ylamino)-phenyl]-2-imino-6-methyl-3-(tetrahydropyran-4-yl)-hexahydropyrimidin-4-one] | 385 nM | – |
| C[C@@]1(c2cccc(Nc3ccc(C4CC4)nc3)c2Cl)CC(=O)N(C2CCOCC2)C(=N)N1 [Example 99, (6S)-6-{2-Chloro-3-[(6-cyclo-propylpyridin-3-yl)amino]-phenyl}-2-imino-6-methyl-3-(tetrahydropyran-4-yl)-hexahydropyrimidin-4-one] | 66 nM | – |
| CC(C)Oc1cccc(Nc2cccc([C@]3(C)CC(=O)N(C4CCOCC4)C(=N)N3)c2Cl)c1 [Example 74, (6S)-6-[2-Chloro-3-(3-isopropoxyanilino)phenyl]-2-imino-6-methyl-3-(tetrahydro-pyran-4-yl)hexahydropyrimidin-4-one] | 1290 nM | – |
| C[C@@]1(c2cccc(Nc3ccc(OC(F)F)nc3)c2Cl)CC(=O)N([C@H]2C[C@@](C)(O)C2)C(=N)N1 [Example 128, (6S)-6-(2-Chloro-3-{[6-(difluoromethoxy)pyridin-3-yl]-amino}phenyl)-3-(3-hydroxy-3-methylcyclobutyl)-2-imino-6-methylhexahydropyrimidin-4-one] | 717 nM | – |
| C[C@@]1(c2cccc(Nc3cccc(OC(F)F)c3)c2Cl)CC(=O)N(C2CCOCC2)C(=N)N1 [Example 63, (6S)-6-{2-Chloro-3-[3-(difluoro-methoxy)anilino]phenyl}-2-imino-6-methyl-3-(tetrahydro-pyran-4-yl)hexahydropyrimidin-4-one] | 916 nM | – |

Further lines, results first:

| IC50 [1] | IC50 | Structure (SMILES) |
| --- | --- | --- |
| 552 nM | – | Cc1ccc(Nc2cccc([C@]3(C)CC(=O)N([C@@H]4CCO[C@@H](C)C4)C(=N)N3)c2Cl)cn1 (single isomer, unassigned; peak 2) [Example 196, (6S)-6-{2-Chloro-3-[(6-methyl-pyridin-3-yl)amino]phenyl}-2-imino-6-methyl-3-[(2S*,4R*)-2-methyltetrahydropyran-4-yl]-hexahydropyrimidin-4-one (Peak 2)] |
| 466 nM | – | C[C@@]1(c2cccc(Nc3ccc(Cl)cn3)c2Cl)CC(=O)N(C2CCOCC2)C(=N)N1 [Example 182, (6S)-6-{2-Chloro-3-[(5-chloro-pyridin-2-yl)amino]phenyl}-2-imino-6-methyl-3-(tetrahydro-yran-4-yl)-hexahydropyrimidin-4-one] |
| 374 nM | – | C[C@@]1(c2cccc(Nc3ccc(C4CCC4)nc3)c2Cl)CC(=O)N(C2CCOCC2)C(=N)N1 [Example 106, (6S)-6-{2-Chloro-3-[(6-cyclo-butylpyridin-3-yl)amino]-phenyl}-2-imino-6-methyl-3-(tetrahydropyran-4-yl)-hexahydropyrimidin-4-one] |
| – | 1730 nM | CC1(C)CC(N2C(=N)N[C@](C)(c3cccc(Nc4ccc(C5CC5)nc4)c3Cl)CC2=O)CCO1 (single isomer, unassigned) [Example 158, (6S)-6-{2-Chloro-3-[(6-cyclo-propylpyridin-3-yl)amino]-phenyl}-3-[(4S*)-2,2-dimethyl-tetrahydropyran-4-yl]-2-imino-6-methylhexahydropyrimidin-4-one] |
| 622 nM | – | CC1(C)CC(N2C(=N)N[C@](C)(c3cccc(Nc4ccc(C5CC5)nn4)c3Cl)CC2=O)CCO1 (single isomer, unassigned) [Example 150, (6S)-6-{2-Chloro-3-[(6-cyclo-propylpyridazin-3-yl)amino]-phenyl}-3-[(4S*)-2,2-dimethyl-tetrahydropyran-4-yl]-2-imino-6-methylhexahydropyrimidin-4-one] |
| 34 nM | – | Cc1ccc(Nc2cccc([C@]3(C)CC(=O)N(C4CCOCC4)C(=N)N3)c2Cl)c(OC(F)F)n1 [Example 94, (6S)-6-(2-Chloro-3-{[2-(difluoromethoxy)-6-methyl-pyridin-3-yl]amino}phenyl)-2-imino-6-methyl-3-(tetrahydro-pyran-4-yl)hexahydropyrimidin-4-one] |
| 764 nM | – | C[C@@]1(c2cccc(Nc3ccc(C(F)(F)F)cc3)c2Cl)CC(=O)N([C@H]2C[C@@](C)(O)C2)C(=N)N1 [Example 174, (6S)-6-{2-Chloro-3-[4-(trifluoromethyl)anilino]-phenyl}-3-(3-hydroxy-3-methyl-cyclobutyl)-2-imino-6-methyl-hexahydropyrimidin-4-one] |
| 658 nM | – | CN1CCOc2cc(Nc3cccc([C@]4(C)CC(=O)N(C5CCOCC5)C(=N)N4)c3Cl)ccc21 [Example 86, (6S)-6-{2-Chloro-3-[(4-methyl-2,3-dihydro-1,4-benzoxazin-7-yl)amino]phenyl}-2-imino-6-methyl-3-(tetrahydropyran-4-yl)hexahydropyrimidin-4-one] |
| 216 nM | – | C[C@@]1(c2cccc(Nc3cccnc3OC(F)F)c2Cl)CC(=O)N(C2CCOCC2)C(=N)N1 [Example 97, (6S)-6-(2-Chloro-3-{[2-(difluoromethoxy)pyridin-3-yl]-amino}phenyl)-2-imino-6-methyl-3-(tetrahydropyran-4-yl)hexahydropyrimidin-4-one] |
| 193 nM | – | C[C@@]1(c2cccc(Nc3ncccc3OC(F)F)c2Cl)CC(=O)N(C2CCOCC2)C(=N)N1 [Example 102, (6S)-6-(2-Chloro-3-{[3-(difluoromethoxy)pyridin-2-yl]-amino}phenyl)-2-imino-6-methyl-3-(tetrahydropyran-4-yl)hexahydropyrimidin-4-one] |
| 3700 nM | – | C[C@H]1C[C@H](N2C(=N)N[C@](C)(c3cccc(Nc4ccc(OC(F)F)nc4)c3Cl)CC2=O)CCO1 (single isomer, unassigned; peak 2) [Example 192, (6S)-6-(2-Chloro-3-{[6-(difluoromethoxy)pyridin-3-yl]-amino}phenyl)-2-imino-6-methyl-3-[(2S*,4R*)-2-methyl-tetrahydropyran-4-yl]-hexahydropyrimidin-4-one (Peak 2)] |
| 10400 nM | – | Cn1ccc(Nc2cccc([C@]3(C)CC(=O)N(C4CCOCC4)C(=N)N3)c2Cl)cc1=O [Example 73, (6S)-6-{2-Chloro-3-[(1-methyl-2-oxopyridin-4-yl)amino]-phenyl}-2-imino-6-methyl-3-(tetrahydropyran-4-yl)-hexahydropyrimidin-4-one] |
| 269 nM | – | C[C@@]1(c2cccc(Nc3ccc(Cl)nc3)c2Cl)CC(=O)N(C2CCOCC2)C(=N)N1 [Example 60, (6S)-6-{2-Chloro-3-[(6-chloro-pyridin-3-yl)amino]phenyl}-2-imino-6-methyl-3-(tetrahydro-pyran-4-yl)hexahydropyrimidin-4-one] |
| 600 nM | – | C[C@@]1(c2cccc(Nc3cccc4ccccc34)c2Cl)CC(=O)N(C2CCOCC2)C(=N)N1 [Example 57, (6S)-6-[2-Chloro-3-(1-naphthyl-amino)phenyl]-2-imino-6-methyl-3-(tetrahydropyran-4-yl)hexahydropyrimidin-4-one] |
